Test results taken from US11344546B2, “Benzamide compounds” (Recurium IP Holdings, LLC, priority 2018, dated 2022).

Test system: RS4;11 cells
Assay: RS4;11 cell proliferation assay (CellTiter-Glo)
Type: cell-based
Settings: Homo sapiens, 48 h compound treatment, read-out: RS4;11 (nM) CTG IC50
Protocol: Cell proliferation was measured using the CellTiter-Glo@ Luminescent Cell Viability Assay. The assay involved the addition of a single reagent (CellTiter-Glo® Reagent) directly to cells cultured in serum-supplemented medium. RS4;11 (ATC, CRL-1873) cells were cultured according to ATCC recommendations and were seeded at 50,000 cells per well. NCI-H1963 cells (ATCC CRL-5982) were cultured according to ATCC recommendations and seeded at 12,000 cells per well.
Each compound evaluated was prepared as a DMSO stock solution (10 mM). Compounds were tested in duplicate on each plate, with a 10-point serial dilution curve (1:3 dilution). Compound treatment (1.0 μL) was added from the compound dilution plate to the cell plate. The highest compound concentration was 10 μM (final), with a 0.1% final DMSO concentration. Plates were then incubated at 37° C., 5% CO2. After 48 h of compound treatment for RS4;11 or 72 h for NCI-H1963, cell plates were equilibrated at rt for approximately 30 mins. An equi-volume amount of CellTiter-Glo@ Reagent (40 μL) was added to each well. Plates were mixed for 2 mins on an orbital shaker to induce cell lysis and then incubated at RT for 10 mins to stabilize the luminescent signal. Luminescence was recorded using a Envision plate reader according to CellTiter-Glo protocol. IC50 of each compound was calculated using GraphPad Prism by nonlinear regression analysis.

Compound | IC50 [nM]
CC1(C)CCC(CN2CCN(c3ccc(C(=O)NS(=O)(=O)c4ccc(NCC5CC6(COC6)C5)c([N+](=O)[O-])c4)c(Oc4cnc5[nH]ccc5c4)c3)CC2)=C(C23CC(Cl)(C2)C3)C1 [Example 2, 2-(1H-pyrrolo[2,3-b]pyridin-5-yl-oxy)-N-(4-(2-oxaspiro[3.3]heptan-6-yl-methylamino)-3-nitrophenylsulfonyl)-4-(4-((2-(3-chlorobicyclo[1.1.1]pentan-1-yl)-4,4-dimethylcyclohex-1en-yl)methyl)piperazin-1-yl)benzamide] | < 100
CC1(C)CCC(CN2CCN(c3ccc(C(=O)NS(=O)(=O)c4ccc(NCCN5CCC6(CCOC6)CC5)c([N+](=O)[O-])c4)c(Oc4cnc5[nH]ccc5c4)c3)CC2)=C(C23CC(Cl)(C2)C3)C1 [Example 3, 2-((1H-pyrrolo[2,3-b]pyridin-5-yl)oxy)-N-((4-((2-(2-oxa-8-azaspiro[4.5]decan-8-yl)ethyl)amino)-3-nitrophenyl)sulfonyl)-4-(4-((2-(3-chlorobicyclo[1.1.1]pentan-1-yl)-4,4-dimethylcyclohex-1-en-1-yl)methyl)piperazin-1-yl)benzamide] | 100 to 1000
CC1(C)CCC(CN2CCN(c3ccc(C(=O)NS(=O)(=O)c4ccc(NCCN5CC6(CCOCC6)C5)c([N+](=O)[O-])c4)c(Oc4cnc5[nH]ccc5c4)c3)CC2)=C(C23CC(Cl)(C2)C3)C1 [Example 4, 2-(1H-pyrrolo[2,3-b]pyridin-5-yloxy)-N-(4-(2-(7-oxa-2-azaspiro[3.5]nonan-2-yl)ethylamino)-3-nitrophenylsulfonyl)-4-(4-((2-(3-chlorobicyclo[1.1.1]pentan-1-yl)-4,4-dimethylcyclohex-1-enyl)methyl)piperazin-1-yl)benzamide] | 100 to 1000
CC1(C)CCC(CN2CCN(c3ccc(C(=O)NS(=O)(=O)c4ccc(NCC5CC6(CCOCC6)C5)c([N+](=O)[O-])c4)c(Oc4cnc5[nH]ccc5c4)c3)CC2)=C(C23CC(Cl)(C2)C3)C1 [Example 5, 2-((1H-pyrrolo[2,3-b]pyridin-5-yl)oxy)-N-((4-(((7-oxaspiro[3.5]nonan-2-yl)methyl)amino)-3-nitrophenyl)sulfonyl)-4-(4-((2-(3-chlorobicyclo[1.1.1]pentan-1-yl)-4,4-dimethylcyclohex-1-en-1-yl)methyl)piperazin-1-yl)benzamide] | 100 to 1000
CC1(C)CCC(CN2CCN(c3ccc(C(=O)NS(=O)(=O)c4ccc(OC5COC6(CC6)C5)c([N+](=O)[O-])c4)c(Oc4cnc5[nH]ccc5c4)c3)CC2)=C(C23CC(Cl)(C2)C3)C1 (stereo not shown) [Example 6, 2-((1H-pyrrolo[2,3-b]pyridin-5-yl)oxy)-N-((4-((4-oxaspiro[2.4]heptan-6-yl)oxy)-3-nitrophenyl)sulfonyl)-4-(4-((2-(3-chlorobicyclo[1.1.1]pentan-1-yl)-4,4-dimethylcyclohex-1-en-1-yl)methyl)piperazin-1-yl)benzamide] | > 1000
CC1(C)CCC(CN2CCN(c3ccc(C(=O)NS(=O)(=O)c4ccc(OCCN5CC6(COC6)C5)c([N+](=O)[O-])c4)c(Oc4cnc5[nH]ccc5c4)c3)CC2)=C(C23CC(Cl)(C2)C3)C1 [Example 7, 2-(1H-pyrrolo[2,3-b]pyridin-5-yloxy)-N-(4-(2-(2-oxa-6-azaspiro[3.3]heptan-6-yl)ethoxy)-3-nitrophenylsulfonyl)-4-(4-((2-(3-chlorobicyclo[0.1.1]pentan-1-yl)-4,4-dimethylcyclohex-1-enyl)methyl)piperazin-1-yl)benzamide] | > 1000
CC1(C)CCC(CN2CCN(c3ccc(C(=O)NS(=O)(=O)c4ccc(OCC5CC6(COC6)C5)c([N+](=O)[O-])c4)c(Oc4cnc5[nH]ccc5c4)c3)CC2)=C(C23CC(Cl)(C2)C3)C1 [Example 8, 2-(1H-pyrrolo[2,3-b]pyridin-5-yloxy)-N-(4-(2-oxaspiro[3.3]heptan-6-ylmethoxy)-3-nitrophenylsulfonyl)-4-(4-((2-(3-chlorobicyclo[1.1.1]pentan-1-yl)-4,4-dimethylcyclohex-1-enyl)methyl)piperazin-1-yl)benzamide] | 100 to 1000
CN1CCC(CNc2ccc(S(=O)(=O)NC(=O)c3ccc(N4CCN(CC5=C(C67CC(C)(C6)C7)CC(C)(C)CC5)CC4)cc3Oc3cnc4[nH]ccc4c3)cc2[N+](=O)[O-])CC1 [Example 12, 2-((1H-pyrrolo[2,3-b]pyridin-5-yl)oxy)-4-(4-((4,4-dimethyl-2-(3-methylbicyclo[1.1.1]pentan-1-yl)cyclohex-1-en-1-yl)methyl)piperazin-1-yl)-N-((4-(((1-methylpiperidin-4-yl)methyl)amino)-3-nitrophenyl)sulfonyl)benzamide] | < 100
CN(C)[C@H]1CC[C@H](Nc2ccc(S(=O)(=O)NC(=O)c3ccc(N4CCN(CC5=C(C67CC(C)(C6)C7)CC(C)(C)CC5)CC4)cc3Oc3cnc4[nH]ccc4c3)cc2[N+](=O)[O-])CC1 [Example 14, 2-((1H-pyrrolo[2,3-b]pyridin-5-yl)oxy)-4-(4-((4,4-dimethyl-2-(3-methylbicyclo[1.1.1]pentan-1-yl)cyclohex-1-en-1-yl)methyl)piperazin-1-yl)-N-((4-(((1r,4r)-4-(dimethylamino)cyclohexyl)amino)-3-nitrophenyl)sulfonyl)benzamide] | < 100
CC1(C)CCC(CN2CCN(c3ccc(C(=O)NS(=O)(=O)c4ccc(NCCN5CCOCC5)c([N+](=O)[O-])c4)c(Oc4cnc5[nH]ccc5c4)c3)CC2)=C(C23CC(C)(C2)C3)C1 [Example 21, 2-(1H-pyrrolo[2,3-b]pyridin-5-yloxy)-4-(4-((4,4-dimethyl-2-(3-methylbicyclo[1.1.1]pentan-1-yl)cyclohex-1-enyl)methyl)piperazin-1-yl)-N-(4-(2-morpholinoethylamino)-3-nitrophenylsulfonyl)benzamide] | 100 to 1000
CC1(C)CCC(CN2CCN(c3ccc(C(=O)NS(=O)(=O)c4ccc(OCC5CCOCC5)c([N+](=O)[O-])c4)c(Oc4cnc5[nH]ccc5c4)c3)CC2)=C(C23CC(C)(C2)C3)C1 [Example 22, 2-(1H-pyrrolo[2,3-b]pyridin-5-yloxy)-4-(4-((4,4-dimethyl-2-(3-methylbicyclo[1.1.1]pentan-1-yl)cyclohex-1-enyl)methyl)piperazin-1-yl)-N-(3-nitro-4-((tetrahydro-2H-pyran-4-yl)methoxy)phenylsulfonyl)benzamide] | < 100
CCC12CC(C3=C(CN4CCN(c5ccc(C(=O)NS(=O)(=O)c6ccc(NCC7(F)CCN(C)CC7)c([N+](=O)[O-])c6)c(Oc6cnc7[nH]ccc7c6)c5)CC4)CCC(C)(C)C3)(C1)C2 [Example 24, 2-(1H-pyrrolo[2,3-b]pyridin-5-yloxy)-4-(4-((2-(3-ethylbicyclo[1.1.1]pentan-1l-yl)-4,4-dimethylcyclohex-1l-enyl)methyl)piperazin-1-yl)-N-(4-((4-fluoro-1l-methylpiperidin-4-yl)methylamino)-3-nitrophenylsulfonyl)benzamide] | < 100
CN1CCC(F)(CNc2ccc(S(=O)(=O)NC(=O)c3ccc(N4CCN(CC5=C(C67CC(C(F)(F)F)(C6)C7)CC(C)(C)CC5)CC4)cc3Oc3cnc4[nH]ccc4c3)cc2[N+](=O)[O-])CC1 [Example 29, 2-((1H-pyrrolo[2,3-b]pyridin-5-yl)oxy)-4-(4-((4,4-dimethyl-2-(3-(trifluoromethyl)bicyclo[1.1.1]pentan-1-yl)cyclohex-1-en-1-yl)methyl)piperazin-1-yl)-N-((4-(((4-fluoro-1-methylpiperidin-4-yl)methyl)amino)-3-nitrophenyl)sulfonyl)benzamide] | < 100
CC1(C)CCC(CN2CCN(c3ccc(C(=O)NS(=O)(=O)c4ccc(NCC5CC6(CCOCC6)C5)c([N+](=O)[O-])c4)c(Oc4cnc5[nH]ccc5c4)c3)CC2)=C(C23CC(C(F)F)(C2)C3)C1 [Example 37, 2-((1H-pyrrolo[2,3-b]pyridin-5-yl)oxy)-N-((4-(((7-oxaspiro[3.5]nonan-2-yl)methyl)amino)-3-nitrophenyl)sulfonyl)-4-(4-((2-(3-(difluoromethyl)bicyclo[1.1.1]pentan-1-yl)-4,4-dimethylcyclohex-1-en-1-yl)methyl)piperazin-1-yl)benzamide] | < 100
O=C(NS(=O)(=O)c1ccc(NCC2CCOCC2)c([N+](=O)[O-])c1)c1ccc(N2CCN(CC3=C(C45CC(C(F)F)(C4)C5)CC4(CCC4)CC3)CC2)cc1Oc1cnc2[nH]ccc2c1 [Example 42, 2-((1H-pyrrolo[2,3-b]pyridin-5-yl)oxy)-4-(4-((6-(3-(difluoromethyl)bicyclo[1.1.1]pentan-1-yl)spiro[3.5]non-6-en-7-yl)methyl)piperazin-1-yl)-N-((3-nitro-4-(((tetrahydro-2H-pyran-4-yl)methyl)amino)phenyl)sulfonyl)benzamide] | < 100
CC12CC(C3=C(CN4CCN(c5ccc(C(=O)NS(=O)(=O)c6ccc(NCC7(F)CCOCC7)c([N+](=O)[O-])c6)c(Oc6cnc7[nH]ccc7c6)c5)CC4)CCC4(CCC4)C3)(C1)C2 [Example 43, 2-((1H-pyrrolo[2,3-b]pyridin-5-yl)oxy)-N-((4-(((4-fluorotetrahydro-2H-pyran-4-yl)methyl)amino)-3-nitrophenyl)sulfonyl)-4-(4-((6-(3-methylbicyclo[1.1.1]pentan-1-yl)spiro[3.5]non-6-en-7-yl)methyl)piperazin-1-yl)benzamide] | 100 to 1000
